Data on 20 molecules can be found in US10821115B2, “Compounds that inhibit Mcl-1 protein” (priority 2017, dated 2020).

This assay deals with recombinant human Mcl-1 (residues 171-327) / Bim interaction (Homo sapiens (Human), UniProt Q07820). Briefly: biochemical. The class given is binding.
Setting [1] is: TR-FRET, Mcl-1(171-327) / biotin-Bim (51-76), read-out: Mcl-1 HTRF IC50.
Setting [2] is: 0.1 nM Mcl-1(171-327), 0.05 nM biotin-Bim (51-76), read-out: Mcl-1 HTRF IC50.

Like-named read-outs stand apart in the source and are kept apart here.

recombinant human Mcl-1 (residues 171-327) / Bim interaction, sequence (Q07820 171-327): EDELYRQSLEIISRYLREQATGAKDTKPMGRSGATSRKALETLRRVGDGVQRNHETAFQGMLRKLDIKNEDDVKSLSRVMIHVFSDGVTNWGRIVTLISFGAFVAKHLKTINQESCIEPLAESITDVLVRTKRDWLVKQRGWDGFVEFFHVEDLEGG

As usually defined, the IC50 is the midpoint of a concentration-inhibition curve. In the case of `O=C1NS(=O)(=O)CCCCC[C@](O)(CO)[C@@H]2CC[C@H]2CN2C[C@@]3(CCCc4cc(Cl)ccc43)COc3ccc1cc32` [Example 100021, (1S,3′R,6′R,7′R)-6-chloro-7′-hydroxy-7′-(hydroxymethyl)-3,4-dihydro-2H,15′H-spiro[naphthalene-1,22′-[20]oxa[13]thia[1,14]diazatetracyclo [14.7.2.0~3,6~.0~19,24~]pentacosa[16,18,24]trien]-15′-one 13′,13′-dioxide], under setting [1], the IC50 is 1.05 nM.

Take `C[C@@]1(O)CCCCCS(=O)(=O)NC(=O)c2ccc3c(c2)N(C[C@@H]2CC[C@H]21)C[C@@]1(CCCc2cc(Cl)ccc21)CO3` [Example 100024, (1S,3′R,6′R,7′R)-6-chloro-7′-hydroxy-7′-methyl-3,4-dihydro-2H,15′H-spiro[naphthalene-1,22′-[20]oxa[13]thia[1,14]diazatetracyclo [14.7.2.0~3,6~.0~19,24~]pentacosa[16,18,24]trien]-15′-one 13′,13′-dioxide]: the IC50 under setting [1] stood at 6.16 nM.

`CC[C@@H]1CC/C=C/[C@@](O)(CO)[C@@H]2CC[C@H]2CN2C[C@@]3(CCCc4cc(Cl)ccc43)COc3ccc(cc32)C(=O)NS1(=O)=O` [Example 100034, (1S,3′R,6′R,7′S,8′E,12′R)-6-chloro-12′-ethyl-7′-hydroxy-7′-(hydroxymethyl)-3,4-dihydro-2H,15′H-spiro[naphthalene-1,22′-[20]oxa[13]thia[1,14]diazatetracyclo [14.7.2.0~3,6~.0~19,24~]pentacosa[8,16,18,24]tetraen]-15′-one 13′,13′-dioxide]: the IC50 under setting [1] amounted to 0.877 nM.

Turning to `C[C@H]1CC/C=C/[C@](C)(O)[C@@H]2CC[C@H]2CN2C[C@@]3(CCCc4cc(Cl)ccc43)COc3ccc(cc32)C(=O)NS1(=O)=O` (single isomer, unassigned) [Example 100028], the IC50 under setting [1] is 1.26 nM.

As for `CC(C)N1CCO[C@]2(/C=C/C[C@H](C)[C@@H](C)S(=O)(=O)NC(=O)c3ccc4c(c3)N(C[C@@H]3CC[C@H]32)C[C@@]2(CCCc3cc(Cl)ccc32)CO4)C1` [Example 127, (1 S,3′R,6′R,7′S,8′E, 11′S,12′R)-6-chloro-11′,12′-dimethyl-4″-(1-methylethyl)-3,4-dihydro-2H,15′H-dispiro[naphthalene-1,22′-[20]oxa[13]thia[1,14]diazatetracyclo[14.7.2.0-3,6˜.0˜19,24˜]pentacosa[8,16,18,24]tetraene-7′,2″-[1,4]oxazinan]-15′-one 13′,13′-dioxide], the IC50 under setting [2] is 0.395 nM.

Turning to `O=C1NS(=O)(=O)CCCCC[C@@](O)(CO)[C@@H]2CC[C@H]2CN2C[C@@]3(CCCc4cc(Cl)ccc43)COc3ccc1cc32` [Example 100022, (1S,3′R,6′R,7′S)-6-chloro-7′-hydroxy-7′-(hydroxymethyl)-3,4-dihydro-2H,15′H-spiro[naphthalene-1,22′-[20]oxa[13]thia[1,14]diazatetracyclo [14.7.2.0~3,6~.0~19,24~]pentacosa[16,18,24]trien]-15′-one 13′,13′-dioxide], under setting [1], the IC50 came to 0.861 nM.

On to `C[C@@H]1[C@@H](C)C/C=C/[C@](O)(CS(=O)(=O)N(C)C)[C@@H]2CC[C@H]2CN2C[C@@]3(CCCc4cc(Cl)ccc43)COc3ccc(cc32)C(=O)NS1(=O)=O` (single isomer, unassigned) [Example 100293], for which the IC50 (Mcl-1 HTRF IC50) stood at 0.522 nM.

Take `C[C@H]1CC/C=C/[C@@](C)(O)[C@@H]2CC[C@H]2CN2C[C@@]3(CCCc4cc(Cl)ccc43)COc3ccc(cc32)C(=O)NS1(=O)=O` (single isomer, unassigned) [Example 100032]: the IC50 under setting [1] amounted to 0.442 nM.

Regarding `C[C@@H]1CC[C@@H]2CC2[C@](C)(O)[C@@H]2CC[C@H]2CN2C[C@@]3(CCCc4cc(Cl)ccc43)COc3ccc(cc32)C(=O)NS1(=O)=O` (stereo in doubt) [Example 100033, (1S,3′R,6′R,7′S,8′S,13′R)-6-chloro-7′-hydroxy-7′,13′-dimethyl-3,4-dihydro-2H,16′H-spiro[naphthalene-1,23′-[21]oxa[14]thia[1,15]diazapentacyclo [15.7.2.0~3,6~.0~8,10~.0~20,25~]hexacosa [17,19,25]trien]-16′-one 14′,14′-dioxide], under setting [1], the concentration for half-maximal inhibition (IC50) came to 2.81 nM.

`C[C@@H]1[C@@H](C)C/C=C/[C@]2(CN(C)CCO2)[C@@H]2CC[C@H]2CN2C[C@@]3(CCCc4cc(Cl)ccc43)COc3ccc(cc32)C(=O)NS1(=O)=O` [Example 130]: under setting [2], the half-maximal inhibitory concentration (IC50) came out at 0.92 nM.

`C[C@@H]1[C@@H](C)C/C=C/[C@](O)(C#CCCCN2CCOCC2)[C@@H]2CC[C@H]2CN2C[C@@]3(CCCc4cc(Cl)ccc43)COc3ccc(cc32)C(=O)NS1(=O)=O` [Example 100494, (1S,3′R,6′R,7′R,8′E,11′S,12′R)-6-chloro-7′-hydroxy-11′,12′-dimethyl-7′-(5-(4-morpholinyl)-1-pentyn-1-yl)-3,4-dihydro-2H,15′H-spiro[naphthalene-1,22′-[20]oxa[13]thia[1,14]diazatetracyclo [14.7.2.0~3,6~.0~19,24~]pentacosa[8,16,18,24]tetraen]-15′-one 13′,13′-dioxide]: the IC50 under setting [1] amounted to 0.078 nM.

On to `C[C@@H]1[C@@H](C)C/C=C/[C@@](O)(C#CCCCN2CCOCC2)[C@@H]2CC[C@H]2CN2C[C@@]3(CCCc4cc(Cl)ccc43)COc3ccc(cc32)C(=O)NS1(=O)=O` [Example 100493, (1S,3′R,6′R,7′S,8′E,11′S,12′R)-6-chloro-7′-hydroxy-11′,12′-dimethyl-7′-(5-(4-morpholinyl)-1-pentyn-1-yl)-3,4-dihydro-2H,15′H-spiro[naphthalene-1,22′-[20]oxa[13]thia[1,14]diazatetracyclo [14.7.2.0~3,6~.0~19,24~]pentacosa[8,16,18,24]tetraen]-15′-one 13′,13′-dioxide], for which the concentration for half-maximal inhibition (IC50) under setting [1] is 0.322 nM.

With `C[C@@H]1CS(=O)(=O)NC(=O)c2ccc3c(c2)N(C[C@@H]2CC[C@H]2[C@](O)(CN2CCN4CCOC[C@@H]4C2)CC[C@@H]1C)C[C@@]1(CCCc2cc(Cl)ccc21)CO3` [Example 405, (1S,3′R,6′R,7′S,10′S,11′S)-6-chloro-7′-((9aS)-hexahydropyrazino[2,1-c][1,4]oxazin-8(1H)-ylmethyl)-7′-hydroxy-10′,11′-dimethyl-3,4-dihydro-2H, 15′H-spiro[naphthalene-1,22′-[20]oxa[13]thia[1,14]diazatetracyclo[14.7.2.0-3,6˜.0˜19,24˜]pentacosa[16,18,24]trien]-15′-one 13′,13′-dioxide], the concentration for half-maximal inhibition (IC50) under setting [2] came to 0.057 nM.

`N#C[C@]1(O)CCCCCS(=O)(=O)NC(=O)c2ccc3c(c2)N(C[C@@H]2CC[C@H]21)C[C@@]1(CCCc2cc(Cl)ccc21)CO3` [Example 100027, (1S,3′R,6′R,7′S)-6-chloro-7′-hydroxy-15′-oxo-3,4-dihydro-2H-spiro[naphthalene-1,22′-[20]oxa[13]thia[1,14]diazatetracyclo [14.7.2.0~3,6~.0~19,24~]pentacosa[16,18,24]triene]-7′-carbonitrile 13′,13′-dioxide]: the IC50 under setting [1] stood at 7.34 nM.

Regarding `C[C@@H]1[C@@H](C)C/C=C/[C@@]2(CN(C)CCO2)[C@@H]2CC[C@H]2CN2C[C@@]3(CCCc4cc(Cl)ccc43)COc3ccc(cc32)C(=O)NS1(=O)=O` [Example 124, (1S,3′R,6′R,7′S,8′E, 11′S,12′R)-6-chloro-4″,11′,12′-trimethyl-3,4-dihydro-2H,15′H-dispiro[naphthalene-1,22′-[20]oxa[13]thia[1,14]diazatetracyclo[14.7.2.0-3,6˜.0˜19,24˜]pentacosa[8,16,18,24]tetraene-7′,2″-[1,4]oxazinan]-15′-one 13′,13′-dioxide], the IC50 under setting [2] was found to be 0.646 nM.

For the molecule `C[C@]1(O)CCCCCS(=O)(=O)NC(=O)c2ccc3c(c2)N(C[C@@H]2CC[C@H]21)C[C@@]1(CCCc2cc(Cl)ccc21)CO3` [Example 100023, (1S,3′R,6′R,7′S)-6-chloro-7′-hydroxy-7′-methyl-3,4-dihydro-2H,15′H-spiro[naphthalene-1,22′-[20]oxa[13]thia[1,14]diazatetracyclo [14.7.2.0~3,6~.0~19,24~]pentacosa[16,18,24]trien]-15′-one 13′,13′-dioxide], the IC50 under setting [1] was 3.94 nM.

For the molecule `C[C@@H]1[C@@H](C)C/C=C/[C@]2(CN3CCOC[C@@H]3CO2)[C@@H]2CC[C@H]2CN2C[C@@]3(CCCc4cc(Cl)ccc43)COc3ccc(cc32)C(=O)NS1(=O)=O` [Example 131], the IC50 under setting [2] amounted to 0.249 nM.

On to `C[C@H]1CC/C=C/[C@@](C)(O)[C@@H]2CC[C@H]2CN2C[C@@]3(CCCc4cc(Cl)ccc43)COc3ccc(cc32)C(=O)NS1(=O)=O` [Example 100030, (1S,3′R,6′R,7′R,8′E,12′S)-6-chloro-7′-hydroxy-7′,12′-dimethyl-3,4-dihydro-2H,15′H-spiro[naphthalene-1,22′-[20]oxa[13]thia[1,14]diazatetracyclo [14.7.2.0~3,6~.0~19,24~]pentacosa[8,16,18,24]tetraen]-15′-one 13′,13′-dioxide], for which the IC50 under setting [1] was found to be 10.4 nM.

As for `CO[C@@]1(CO)/C=C/C[C@H](C)[C@@H](C)S(=O)(=O)NC(=O)c2ccc3c(c2)N(C[C@@H]2CC[C@H]21)C[C@@]1(CCCc2cc(Cl)ccc21)CO3` [Example 100001, (1 S,3′R,6′R,7′S, 8′E,11′S, 12′R)-6-chloro-7′-(hydroxymethyl)-7′-methoxy-11′,12′-dimethyl-3,4-dihydro-2H, 15′H-spiro[naphthalene-1,22′-[20]oxa[13]thia[1,14]diazatetracyclo[14.7.2.˜3,6˜.0˜19,24˜]pentacosa[8,16,18,24]tetraen]-15′-one 13′,13′-dioxide], under setting [1], the IC50 was determined as 0.055 nM.

In the case of `CCO[C@]1(CN2CCN(C(C)C)[C@H](C)C2)CCC[C@H](C)[C@@H](CCOC)S(=O)(=O)NC(=O)c2ccc3c(c2)N(C[C@@H]2CC[C@H]21)C[C@@]1(CCCc2cc(Cl)ccc21)CO3` [Example 519, (1S,3′R,6′R,7′R,11′S,12′R)-6-chloro-7′-ethoxy-12′-(2-methoxyethyl)-11′-methyl-7′-(((3R)-3-methyl-4-(2-propanyl)-1-piperazinyl)methyl)-3,4-dihydro-2H, 15′H-spiro[naphthalene-1,22′-[20]oxa[13]thia[1,14]diazatetracyclo[14.7.2.0-3,6˜.0˜19,24˜]pentacosa[16,18,24]trien]-15′-one 13′,13′-dioxide], the half-inhibitory concentration (IC50) under setting [2] turned out to be 0.157 nM.
